From ChEMBL document CHEMBL2150853 (Eur J Med Chem, 2011)

Legend:
[1] = Antiprion activity against mouse prion protein RML infected mouse ScN2a cells assessed as reduction of PrPSc level by Western blot method; type: cell-based
[2] = Antiprion activity against mouse prion protein 22L infected mouse N167 cells assessed as reduction of PrPSc level by Western blot method; type: cell-based
[3] = tested on: N167; assay: Antiprion activity against mouse prion protein 22L infected mouse N167 cells assessed as drug level required for more than 99 percent reduction of PrPSc level by Western blot method; type: cell-based
[4] = Cytotoxicity against mouse N2A cells assessed as maximal tolerant concentration; type: cell-based; conditions: read-out: MTD
[5] = tested on: ScN2a; assay: Antiprion activity against mouse prion protein RML infected mouse ScN2a cells assessed as drug level required for more than 99 percent reduction of PrPSc level by Western blot method; type: cell-based
[6] = biological target: Major prion protein (Homo sapiens) (UniProt P04156); assay: Binding affinity to truncated human PrP 121-231 at 50 uM by surface plasmon resonance method
[7] = Effective permeability of the compound at pH 7.4 at 30 to 50 uM by PAMPA assay; type: ADME; conditions: read-out: Peff
[8] = Antiprion activity against human prion protein Fukuoka-1 infected mouse F3 cells assessed as reduction of PrPSc level by Western blot method; type: cell-based; conditions: N2a #58 F3
[9] = tested on: N2a #58 F3; assay: Antiprion activity against human prion protein Fukuoka-1 infected mouse F3 cells assessed as drug level required for more than 99 percent reduction of PrPSc level by Western blot method; type: cell-based
[10] = Solubility of the compound in phosphate buffer at 50 uM; type: physicochemical
[11] = in vitro; conditions: dog, MDCK
[12] = Permeability from basolateral to apical side of in wild type MDCK cells assessed as mass balance at 10 uM after 2 hrs; type: ADME, cell-based, Canis lupus familiaris; conditions: dog, read-out: permeability
[13] = Permeability from apical to basolateral side of in wild type MDCK cells assessed as mass balance at 10 uM after 2 hrs; type: ADME, cell-based, Canis lupus familiaris; conditions: dog, read-out: permeability
[14] = tested on: human MDR1; type: ADME, cell-based, Canis lupus familiaris; conditions: dog, MDCK-MDR1
[15] = tested on: human MDR1; assay: Permeability from basolateral to apical side of in MDCK cells overexpressing human MDR1 assessed as mass balance at 10 uM after 2 hrs; type: ADME, cell-based, Canis lupus familiaris; conditions: dog, read-out: permeability
[16] = tested on: MDCK; assay: Permeability from basolateral to apical side of in wild type MDCK cells assessed as adsorption on transwell at 10 uM after 2 hrs; type: ADME, cell-based, Canis lupus familiaris; conditions: dog
[17] = tested on: human MDR1; type: ADME, cell-based, Canis lupus familiaris; conditions: dog, MDCK-MDR1; read-out: permeability
[18] = tested on: MDCK; type: ADME, cell-based, Canis lupus familiaris; conditions: dog, 2 h, 10 µM
[19] = tested on: MDCK; assay: Permeability from apical to basolateral side of in P-glycoprotein-mediated MDCK cells over expressing human MDR1 assessed as cell retention at 10 uM after 2 hrs; type: ADME, cell-based, Canis lupus familiaris; conditions: dog
[20] = tested on: MDCK; assay: Permeability from apical to basolateral side of in wild type MDCK cells assessed as cell retention at 10 uM after 2 hrs; type: ADME, cell-based, Canis lupus familiaris; conditions: dog
[21] = tested on: MDCK; type: ADME, cell-based, Canis lupus familiaris; conditions: dog, 2 h, 10 µM; remark: listed apart in the source
[22] = tested on: MDCK; assay: Permeability from basolateral to apical side of in P-glycoprotein-mediated MDCK cells over expressing human MDR1 assessed as cell retention at 10 uM after 2 hrs; type: ADME, cell-based, Canis lupus familiaris; conditions: dog
[23] = tested on: human MDR1; type: ADME, cell-based, Canis lupus familiaris; conditions: dog, MDCK-MDR1; remark: listed apart in the source
[24] = tested on: human MDR1; assay: in vitro; conditions: dog, MDCK-MDR1
[25] = tested on: MDCK; assay: Permeability from basolateral to apical side of in wild type MDCK cells assessed as cell retention at 10 uM after 2 hrs; type: ADME, cell-based, Canis lupus familiaris; conditions: dog
[26] = tested on: MDCK; assay: Permeability from apical to basolateral side of in wild type MDCK cells assessed as adsorption on transwell at 10 uM after 2 hrs; type: ADME, cell-based, Canis lupus familiaris; conditions: dog

Row | SMILES | EC50 [1] [nM] | EC50 [2] [nM] | Activity [3] [µM] | MNTC [4] [µM] | Activity [5] [µM] | RUmax [6] [%] | Papp at up to 50 µM [7] [×10⁻⁶ cm/s] | EC50 [8] [nM] | Activity [9] [µM] | also measured
1 | COc1ccc2nc3cc(Cl)ccc3c(NC3CCN(Cc4ccc(Cl)cc4)CC3)c2c1 | 280 | 340 | 3 | 12 | 1 | 98.3 | 15.5 |  |  | 
2 | COc1ccc2nc3cc(Cl)ccc3c(NC3CCN(Cc4ccccc4)CC3)c2c1 | 420 | 490 | 1.5 | 2 | 1 | 65.4 |  | 800 |  | 
3 | COc1ccc2nc3cc(Cl)ccc3c(NC3CCN(CCc4ccccc4)CC3)c2c1 | 130 | 230 | 1 | 2 | 0.5 | 174 | 7.68 | 190 | 2 | 
4 | COc1ccc2nc3cc(Cl)ccc3c(NC3CC4CCC(C3)N4Cc3ccccc3)c2c1 (stereo unspecified) | 54 | 350 | 1 | 2 | 2 |  | 8.31 | 540 | 1.5 | solubility [10]: Insoluble
5 | COc1ccc(CN2CCC(Nc3c4ccc(Cl)cc4nc4ccc(OC)cc34)CC2)cc1 | 82 | 520 | 2 | 10 | 1.5 | 160 | 7.54 |  |  | 
6 | CCN(CC)CCNc1c2ccc(Cl)cc2nc2ccc(OC)cc12 |  |  |  |  |  | 153 | 21 |  |  | 
7 | COc1ccc2nc3cc(Cl)ccc3c(Nc3ccc(N4CCN(C(C)=O)CC4)cc3)c2c1 | 35 |  |  | 5 | 0.1 | 210 | 8.79 |  |  | 
8 | C=C[C@H]1C[N@@]2CC[C@H]1C[C@@H]2[C@@H](O)c1ccnc2ccc(OC)cc12 [QUINIDINE] |  |  |  |  |  |  |  |  |  | Papp [7]: 11.5 ×10⁻⁶ cm/s
9 | Clc1ccc2c(NC3CCN(Cc4ccccc4)CC3)c3c(nc2c1)CCCC3 | 540 | 420 | 3 | 5 | 1 | 138 |  | 1190 | 5 | 
10 | COc1ccc2nc3cc(Cl)ccc3c(Nc3ccc(C(=O)N4CCN(C)CC4)cc3)c2c1 | 1230 | 4200 | 7 | 12 | 5 | 232 |  | 4100 |  | 
11 | COc1ccc2nc3cc(Cl)ccc3c(Nc3ccc(N4CCN(C)CC4)cc3)c2c1 | 100 | 420 | 1.5 | 2.5 | 0.4 | 120 | 8.13 | 680 | 1.5 | efflux ratio at 2 h, 10 µM [11]: 1.2; recovery at 2 h, 10 µM [12]: 75.3%; recovery at 2 h, 10 µM [13]: 11.3%; Papp B→A at 2 h, 10 µM [14]: 0.34 ×10⁻⁶ cm/s; recovery at 2 h, 10 µM [15]: 73%; permeability [16]: 3.5%; recovery at 2 h, 10 µM [17]: 12.6%; permeability [18]: 3.1%; permeability [19]: 67%; permeability [20]: 66.4%; permeability [21]: 6.1%; permeability [22]: 44.2%; Papp A→B at 2 h, 10 µM [23]: 0.14 ×10⁻⁶ cm/s; efflux ratio at 2 h, 10 µM [24]: 2.4; permeability [25]: 27.5%; permeability [26]: 11.4%
12 | COc1ccc2nc3cc(Cl)ccc3c(NCCCN(C)C)c2c1 |  |  |  |  |  | 164 | 13.3 |  |  | 
13 | COc1ccc2nc3cc(Cl)ccc3c(NC3CCN(CCc4ccc(C)cc4)CC3)c2c1 | 76 | 300 | 1 | 3 | 1 | 148 | 7.39 | 690 | 3 | 
14 | Cn1c(=O)c2c(ncn2C)n(C)c1=O [CAFFEINE] |  |  |  |  |  |  | 2.46 |  |  | 
15 | COc1ccc2nc3cc(Cl)ccc3c(NC3CCN(Cc4ccc(C#N)cc4)CC3)c2c1 | 550 | 140 | 1 | 5 | 1 | 109 | 9.15 |  |  | 
